Test results reported in US20230192772A1, “ANTIMICROBIAL PEPTIDES AND USES THEREOF” (SORBONNE UNIVERSITE, priority 2016, published 2023).
Ends that are not written are not given here.

Tests used:
[1] = LC50 on immune cells (cytotoxic effect, cell viability); assay type: cell-based
Experimental: The mouse immune cells are obtained from C57BL6 mouse bone marrow. The human immune cells were purified from the whole blood of healthy donors (blood bank, IMSS, Cuernavaca, Mexico).
The peptides are incubated at 37° C., 5% CO2 in the presence of 500,000 immune and non-immune cells in RPMI medium at varied concentrations and at varied times. Peptide-free cells are used as the negative control and cells incubated for 5 min at 50° C. or in the presence of DMSO (30%) are used as the positive control. After incubation, the cells are washed then labelled with propidium iodide so as to measure the cell viability. The cell viability is analysed by counting or with flow cytometry in the presence of antibodies coupled with fluorochromes corresponding to characteristic markers of each cell population. The LC50 is then calculated as being the concentration of DA2N and DA2NEQ peptides inducing the death of 50% of each one of the immune cell populations.
Cytometry data processing is carried out with FlowJo software.

[2] = system: psoriatic lesions and angiogenesis of skin; test: Imiquimod-induced psoriasis model; assay type: in vivo, balb/c mice; settings: topical, 10 µg; no Imiquimod treatment
Experimental: The DA2N and DA2NEQ peptides were tested in an Imiquimod-induced psoriasis model described by Van der Fits (Van der Fits et al. 2009. Journal of immunology. 182(9):5836-5845) on female balb/c mice, aged 7 to 8 weeks.
31 mg of commercial cream containing 5% Imiquimod (Aldara, 3 M Pharmaceuticals) is applied topically on about 2.5 cm of the previously shaven ventral region of the mice for 6 days. The first psoriatic lesions appear on the 3rd day. The peptides resuspended in the cream are applied topically or intravenously (10 µg) for the first 3 days of Imiquimod treatment. Mice with no Imiquimod treatment and/or with no peptide application were used as controls. On the 6th day, the mice are sacrificed and the skin sampled is analysed by microscopy (skin lesions and angiogenesis).

[3] = Cytotoxic effects on immune cells obtained from mouse bone marrow; assay type: cell-based; settings: mouse immune cells originating from bone marrow, read-out: LC50
Experimental: The mouse immune cells are obtained from C57BL/6 or Balb/c mouse bone marrow. The peptides are incubated at 37° C., 5% CO2 in the presence of 500,000 immune cells in RPMI medium at varied concentrations for 2 hours. Peptide-free cells are used as the negative control and cells in the presence of DMSO (30%) are used as the positive control. After incubation, the cells are washed then labelled with Trypan blue so as to measure the cell viability by microscope counting. The LC50 is then calculated as being the concentration of DA2N, K12A and DANa peptides inducing the death of 50% of the immune cells.

[4] = system: Klebsiella pneumoniae CIP 5211; test: MIC/MBC, growth inhibition in liquid medium (Example 2); assay type: cell-based; settings: Table 2
Description: (§1) Escherichia coli (ATCC 8739, ATCC ML35p and P7 BLSE), Pseudomonas aeruginosa (ATCC 9027 and ATCC 27853), Klebsiella oxytoca (CIP 7932), Klebsiella pneumoniae (CIP 52.211), Salmonella enterica (CIP 8297), Yersinia ruckeri (ATCC 29473), Vibrio parahemolyticus (IFREMER 01 01/252), Staphylococcus aureus (ATCC 6538, ST 1065 and MRSA), Staphylococcus epidermidis (BM 3302), Listeria monocytogenes (SOR 100), Enterococcus faecalis (CIP A186, CIP 103015)), Kocuria rhizophila (ATCC 9341), Lactococcus garviae (ATCC 43921), Bacillus subtilis (CIP 52.65).
(§2) For each strain, a 5 ml pre-culture in LB medium is prepared by inoculating a colony of the bacterial strain of interest. The pre-culture is incubated at 37° C. under stirring overnight. The culture is subcultured (30 µL) in 5 mL. The culture concentration is evaluated by measuring the optical density at 620 nm. The concentration is adjusted by dilution so as to obtain a suspension with an OD of 0.05 at 620 nm.
(§3) The MIC is determined using a growth inhibition test in liquid medium. The MIC is defined as being the lowest peptide concentration capable of inhibiting the bacterial strain tested, after incubation for 18 h at 37° C. The test was carried out in a sterile microtitration plate containing 96 wells. A series of increasing concentrations of each peptide (0.2 to 100 µM) was prepared beforehand in sterile MilliQ water. In each well, 10 µL of peptide was incubated with 90 µL of bacterial suspension (10^7 cfu/mL) in yeast extract-free LB medium. The microplate was incubated at 37° C. for 18 h. The bacterial growth was evaluated by measuring the OD at 620 nm using a plate reader.
(§4) The negative growth inhibition control was obtained by replacing the solution containing the peptide by sterile MilliQ water. The positive control suitable for completely inhibiting the growth of the bacterial strains was obtained by replacing the solution containing the peptide by 10 µL of formaldehyde.
(§5) The results are interpreted by calculating the percentage of bacterial growth in each well according to the formula:
(§6) %Growth = (OD well - OD of T0)/(OD of T100-OD of T0)*100 where
(§7) • OD of T100 = OD of growth control (bacterial suspension free from sample under test, 100% growth), • OD of T0 = OD of sterility control (culture medium + bacterium + 10 µL formaldehyde, 0% growth) and • OD well = OD of well for which it is sought to calculate the growth percentage (bacterial suspension + peptide under test).
(§8) The MBC is defined as being the minimum peptide concentration leaving no surviving bacteria of the inoculum after incubation at 37° C. for 24 hours. This test consists of smearing the contents of the well wherein the peptide has inhibited bacterial growth on a Petri dish (LB agar), followed by incubation for 24 h at 37° C.

[5] = system: Kocuria rhizophila ATCC 9341; test: as above; assay type: cell-based; settings: Table 2
Description: as §1, §2, §3, §4, §5, §6, §7, §8

[6] = system: Pseudomonas aeruginosa ATCC 9027; test: as above; assay type: cell-based; settings: Table 2
Description: as §1, §2, §3, §4, §5, §6, §7, §8

[7] = C57BL6, Neutrophils, Mouse cells
[8] = C57BL6, T lymphocytes, Mouse cells

Substance | CC50 ([1]; C57BL6, Monocytes, Mouse cells) [µM] | CC50 ([1]; C57BL6, NK cells, Mouse cells) [µM] | CC50 [1, 7] [µM] | CC50 [1, 8] [µM] | CC50 ([1]; Monocytes, Human cells) [µM] | CC50 ([1]; NK cells, Human cells) [µM] | CC50 ([1]; Neutrophils, Human cells) [µM] | CC50 ([1]; T lymphocytes, Human cells) [µM] | angiogenesis of healthy skin [2] | effect on healthy skin [2] | CC50 at 2 hours [3] [µM] | MIC [4] [µM] | MBC [5] [µM] | MIC [5] [µM] | MBC [6] [µM] | MIC [6] [µM]
ALWKTLLKKVGKVAGKAVLNAVTNMANQN-OH [DA2N] | 5 | 3 | 6 | 3 | 4 | 4 | 7.5 | 4 | no effect on the angiogenesis of healthy skin | no effect on healthy skin | 5 | 3.12 | 3.12 | 3.12 | 12.5 | 12.5
ALWKTLLKKVGKVAGKAVLNAVTNMANQNEQ [DA2NEQ, ALWKTLLKKVGKVAGKAVLNAVTNMANQNEQOH] | 7 | 4 | 7.5 | 5 | 4 | 4 | 7 | 5 | no effect on the angiogenesis of healthy skin | no effect on healthy skin |  | 3.12 | 6.25 | 6.25 | 25 | 12.5
